Measurements: patent US5246989A, “Photochromic compound, composition and use thereof” (priority 1990, dated 1993)

Tests used:
[1] = Photochromic characteristics of cast polymethyl methacrylate film (coloration under mercury lamp, fading); format: physicochemical; settings: PMMA film, 1.0×10^-4 mol/g, 0.1 mm, 35° C.
[2] = Photochromic characteristics of 2 mm molded thermosetting resin piece containing the spiroxazine; format: physicochemical
Experimental: The compound synthesized in Example 1, which was represented by the following formula: [drawing 286] was dissolved and dispersed in polymethyl methacrylate with the aid of benzene, and a cast film was prepared on a slide glass sheet (11.2 cm×3.7 cm) so that the concentration of the compound in the film was 1.0×10^-4 mol/g and the thickness of the film was 0.1 mm. The photochromic film was irradiated with rays of a mercury lamp (SHL-100 supplied by Toshiba) located 10 cm apart from the film at 35° C.+1° C. for 60 seconds to effect coloration in the film, and the photochromic characteristics were examined with respect to items described below.
Maximum absorption wavelength (λmax):
The maximum absorption wavelength λmax of the colored film was determined by using a spectrophotometer (220 A supplied by Hitachi).
After 60 seconds' irradiation under the above-mentioned conditions, the absorbance at the maximum absorption wavelength was measured.
The absorbance at the maximum absorption wavelength of the unirradiated film was measured. Half-value period t^1/2 :
After 60 seconds' irradiation, the time required for reduction of the absorbance of the film to 1/2 of [ε(60 seconds)-ε(0 second)] was measured.
0.4 parts by weight of the spiroxazine synthesized in Example 1 was added to a composition of 70 parts by weight of chlorostyrene with 30 parts by weight of 2,2-bis(3,5-dibromo-4-methacryloyloxyethoxyphenyl) propane. One part by weight of perbutyl ND was added to the composition as an initiator of radical polymerization and was sufficiently mixed. The mixture liquid was casted into a mold comprising a glass plate and a gasket made of an ethylene-vinyl acetate copolymer and was polymerized in the mold. The mold was placed in an air oven. Polymerization was carried out by gradually elevating the temperature of the air oven from 30° C. to 90° C. for 18 hours and keeping it at 90° C. over a period of 2 hours. After the termination of the polymerization, the mold was removed from the air oven. After the mold was allowed to cool, the polymer molded piece was removed from the glass of the mold.
The photochromic characteristics of the obtained molded piece having a thickness of 2 mm was measured in the same method as Example 65.
Excepting that the kinds and amounts of the monomers and the spiroxazine used in Example 129 were changed and polymerization was carried out by a known means depending on the monomers, Examples 130 to 144 are identical with Example 129.

[3] = Example 129: BMDBP/c1-st (30/70), compound 0.4 parts, 2 mm
[4] = Example 130: ADC (100), compound 0.001 parts
[5] = Example 131: TMP-TAC(100), compound 0.4 parts
[6] = Example 132: BADBP/DAP (60/40), compound 0.4 parts
[7] = Example 133: BMDBP/st (50/50), compound 10 parts
[8] = Example 134: DCIPF/st (70/30), compound 70 parts
[9] = Example 135: EGDMA/st (50/50), compound 30 parts
[10] = Example 136: monomer composition drawn as drawing 288, compound 1.0 parts
[11] = Example 137: monomer composition drawn as drawing 289, compound 0.6 parts
[12] = Example 138: DVB/PETTP(60/40), compound 0.03 parts
[13] = Example 139: XIC/DME (58/42), compound 0.2 parts
[14] = Example 140: XIC/HPA/DVB (10/50/40), compound 0.4 parts
[15] = Example 141: MMA/DEGDMA (70/30), compound 0.1 parts
[16] = Example 142: BADBPO/TBBM/DAP (50/30/20), compound 0.1 parts
[17] = Example 143: HEMA/XIC/BMA (30/20/50), compound 0.1 parts
[18] = Example 144: DEGDMA/BMA (40/60), compound 0.1 parts

t1/2 (half-value period of absorbance after irradiation) ([1]; after 60 seconds' irradiation): 18 s | λ max (maximum absorption wavelength of the colored film) ([1]; mercury lamp 60 seconds): 601 | ε (60 seconds)-ε (0 second) ([1]; mercury lamp 60 seconds, absorbance at λmax): 1.4 | t1/2 [2, 3]: 20 s | ε(60 sec)-ε(0 sec) [2, 3]: 1.6 | λmax [2, 3]: 604 nm | t1/2 [2, 4]: 24 s | ε(60 sec)-ε(0 sec) [2, 4]: 0.9 | λmax [2, 4]: 607 nm | t1/2 [2, 5]: 28 s | ε(60 sec)-ε(0 sec) [2, 5]: 1.5 | λmax [2, 5]: 607 nm | t1/2 [2, 6]: 21 s | ε(60 sec)-ε(0 sec) [2, 6]: 1.5 | λmax [2, 6]: 606 nm | t1/2 [2, 7]: 20 s | ε(60 sec)-ε(0 sec) [2, 7]: 1.7 | λmax [2, 7]: 604 nm | t1/2 [2, 8]: 18 s | ε(60 sec)-ε(0 sec) [2, 8]: 1.8 | λmax [2, 8]: 604 nm | t1/2 [2, 9]: 19 s | ε(60 sec)-ε(0 sec) [2, 9]: 1.7 | λmax [2, 9]: 604 nm | t1/2 [2, 10]: 20 s | ε(60 sec)-ε(0 sec) [2, 10]: 1.6 | λmax [2, 10]: 601 nm | t1/2 [2, 11]: 22 s | ε(60 sec)-ε(0 sec) [2, 11]: 1.6 | λmax [2, 11]: 601 nm | t1/2 [2, 12]: 22 s | ε(60 sec)-ε(0 sec) [2, 12]: 1.5 | λmax [2, 12]: 606 nm | t1/2 [2, 13]: 19 s | ε(60 sec)-ε(0 sec) [2, 13]: 1.5 | λmax [2, 13]: 604 nm | t1/2 [2, 14]: 19 s | ε(60 sec)-ε(0 sec) [2, 14]: 1.6 | λmax [2, 14]: 604 nm | t1/2 [2, 15]: 18 s | ε(60 sec)-ε(0 sec) [2, 15]: 1.6 | λmax [2, 15]: 601 nm | t1/2 [2, 16]: 23 s | ε(60 sec)-ε(0 sec) [2, 16]: 1.6 | λmax [2, 16]: 606 nm | t1/2 [2, 17]: 22 s | ε(60 sec)-ε(0 sec) [2, 17]: 1.6 | λmax [2, 17]: 601 nm | t1/2 [2, 18]: 19 s | ε(60 sec)-ε(0 sec) [2, 18]: 1.6 | λmax [2, 18]: 601 nm
Structure (SMILES): CN1c2ccccc2C2(CCCCC2)C12C=Nc1ccc3ccccc3c1O2 (stereo not drawn) [Compound 1]
